Experimental data from patent publication US20210207099A1, “METHODS AND COMPOSITIONS FOR GENERATING CELLS OF ENDODERMAL LINEAGE AND BETA CELLS AND USES THEREOF” (priority 2018, published 2021).

Assays:
Assay type in all cases: cell-based, human
[1] = test system: plated pancreatic progenitors; assay: Single-cell RNA sequencing of plated pancreatic progenitors treated throughout stage 4; settings: 0.5 μM latrunculin A throughout stage 4
Experimental: Cells generated with the suspension protocol were single-cell dispersed with TrypLE from clusters at the end of stage 3 and seeded onto collagen 1 coated 24-well plates at 0.625×10^6 cells/cm^2. Either 0.5 μM latrunculin A or 5 μM nocodazole were added throughout the entirety of stage 4. At the end of stage 4, cells were single-cell dispersed, suspended in DMEM, and submitted to the Washington University Genome Technology Access Center. Library preparation was done using the Chromium Single Cell 3′ Library and Gel Bead Kit v2 (10× Genomics, 120237). Briefly, single cells were isolated in emulsions using a microfluidic platform, and each single cell emulsion was barcoded with a unique set of oligonucleotides. The GemCode Platform was used to carry out reverse transcription within each single cell emulsion, which was amplified to construct a library. The libraries were sequenced with paired-end reads of 26×98 primerbp using the Illumina HiSeq2500.
Seurat v2.0 was used to perform single cell RNA analyses. Duplicate cells and cells with high mitochondrial gene expression were filtered out using FilterCells (>9000 total genes and >5% mitochondrial genes for Untreated Control, >6000 genes and >6% mitochondrial genes for latrunculin A, >12000 genes and >4% mitochondrial genes for nocodazole). Each data set was normalized using global-scaling normalization. FindVariableGenes identified and removed outlier genes using scaled z-score dispersion. The datasets were then combined and a canonical correlation analysis (CCA) was performed with RunMultiCCA. AlignSubspace was used to align the CCA subspaces and generated a new dimension reduction for integrated analysis. Unsupervised TSNE plots were generated using RunTSNE, and the resulting clusters were defined and labeled using FindMarkers. VInPlot (Violin plots) and FeaturePlot (tsne plots) were used to visualize differences in gene expressions across each cluster and conditions.

[2] = test system: plated pancreatic progenitors; assay: Latrunculin A at different stages of SC-β cell differentiation of plated pancreatic progenitors (flow cytometry, GSIS, insulin content, qRT-PCR)
Description: For experiments investigating the effects of plating pancreatic progenitors, cells were differentiated with the suspension protocol for stages 1-3. At the end of stage 3, clusters were single cell dispersed with TrypLE and plated onto tissue culture plates coated with various ECM proteins at 0.625×10^6 cells/cm^2. Differentiation media for the remainder of this hybrid protocol were the same as for the suspension protocol with the exception that Y-27632 and Activin A were omitted on days 2-5 of stage 4. […] A variety of ECM coatings were initially tested with this plating methodology, including collagen I (Corning, 354249), collagen IV (Corning, 354245), fibronectin (Gibco, 33016-015), vitronectin (Gibco, A14700), matrigel (Corning, 356230), gelatin (Fisher, G7-500), and laminins 111, 121, 211, 221, 411, 421, 511, and 521 (Biolamina, LNKT-0201). All subsequent experiments with this hybrid protocol were performed on collagen I.
RNA was extracted from either whole clusters or cells directly on the plate with the RNeasy Mini Kit (Qiagen, 74016). Samples were treated with a DNAse kit (Qiagen, 79254) during extraction. The High Capacity cDNA Reverse Transcriptase Kit (Applied Biosystems, 4368814) was used to synthesize cDNA on a thermocycler (Applied Biosystems, A37028). The PowerUp SYBR Green Master Mix (Applied Biosystems, A25741) was used on a StepOnePlus (Applied Biosystems), and real time PCR results were analyzed using a ΔΔCt methodology. TBP and GUSB were both used as housekeeping genes. Primer sequences were as follows.
Cells were single-cell dispersed with TrypLE and fixed with 4% PFA for 30 minutes. Cells were then washed with PBS and incubated with ICC solution for 45 minutes at room temperature, incubated with primary antibodies overnight at 4° C., and incubated with secondary antibodies for 2 hours at room temperature. Cells were then washed twice with ICC solution and filtered before running on the LSRII flow cytometer (BD Biosciences). Analysis was completed with FlowJo.
Static GSIS: To assess the function of cells produced by the hybrid protocol, static GSIS was performed with cells still attached to 96 or 24-well tissue culture plates. To assess function of clusters generated with the planar protocol, approximately 30 clusters were collected and placed in tissue culture transwell inserts (MilliporeSigma, PIXP01250) in a 24-well plate. […] Cells were first incubated in a 2 mM glucose KRB solution at 37° C. for one hour, after which this solution was discarded and replaced with fresh 2 mM glucose KRB. After an additional hour, the supernatant was collected. 20 mM glucose KRB was added for the next hour, after which the supernatant was again collected. Cells were washed with fresh KRB during each solution change. Cells were then single-cell dispersed with TrypLE and counted with the Vi-Cell XR (Beckman Coulter). Supernatants from the low and high glucose challenges were quantified with a human insulin ELISA (ALPCO, 80-INSHU-E10.1), and cell counts were used to normalize insulin secretion.
Whole SC-β cell clusters or cells attached to culture plates were washed twice thoroughly with PBS. Half of the clusters or an equivalent well of plated cells were immersed in TrypLE for cell counts on the Vi-Cell XR. For the other half of the samples, a solution of 1.5% HCl and 70% ethanol was added to either the clusters in eppendorf tubes or directly onto plated cells. After 15 minutes, the plated cells were pipetted vigorously and transferred to eppendorf tubes. The eppendorf tubes from both clusters and plated cells were kept at −20° C. for 72 hours, vortexing vigorously every 24 hours. Samples were then centrifuged at 2100 RCF for 15 minutes. […] Proinsulin and insulin secretion were normalized to the viable cell counts.

[3] = test system: HUES8 cells differentiated with the planar protocol; assay: Latrunculin A in the completely planar SC-β cell differentiation protocol
Experimental: Planar protocol: 24 hours after passaging, cells seeded onto 6 or 24-well plates at 0.313-0.521×10^6 cells/cm^2 were differentiated with a new 6 stage protocol using the following formulations, with media changes every day. Stage 1 (4 days): BE1 media+100 ng/mL Activin A+3 μM CHIR99021 for the first 24 hours, followed with 3 days of BE1 containing 100 ng/mL Activin A only. Stage 2 (2 days): BE2 media+50 ng/mL KGF. Stage 3 (2 days): BE3+50 ng/mL KGF, 200 nM LDN193189, 500 nM TPPB (Tocris, 53431), 2 μM retinoic acid, and 0.25 μM SANT1. Stage 4 (4 days): BE3+50 ng/mL KGF, 200 nM LDN193189, 500 nM TPPB, 0.1 μM retinoic acid, and 0.25 μM SANT1. Stage 5 (7 days): S5 media+10 μM ALK5i II+20 ng/mL Betacellulin+0.1 μM retinoic acid+0.25 μM SANT1+1 μM T3+1 μM XXI. 1 μM Latrunculin A was added to this media for the first 24 hours only. Stage 6 (7-25 days): Cultures were kept on the plate with ESFM for the first 7 days. To move to suspension culture, cells could be single cell dispersed with TrypLE and placed in 6 mL ESFM within a 6-well plate at a concentration of 4-5 million cells/well on an orbital shaker at 100 RPM. Assessments were performed 5-8 days after cluster aggregation.
Cells were single-cell dispersed with TrypLE and fixed with 4% PFA for 30 minutes. Cells were then washed with PBS and incubated with ICC solution for 45 minutes at room temperature, incubated with primary antibodies overnight at 4° C., and incubated with secondary antibodies for 2 hours at room temperature. […]

[4] = 24 hour 1 μM treatment, stage 5

## C/C1=C/C(=O)O[C@@H]2C[C@@H](CC[C@H](C)/C=C\C=C\CC1)O[C@@](O)([C@@H]1CSC(=O)N1)C2 [latrunculin A]
[1]
  percentage of cells in the NKX6-1+ population (pancreatic progenitor 2): 2.5%
  percentage of cells with endocrine induction: 44.7%
[2]; 0.5 μM added during stage 5
  endocrine induction, SC-β cell specification and GSIS: greatest increase in endocrine induction, SC-β cell specification, and glucose-stimulated insulin secretion (GSIS)
[2]; 0.5 μM throughout either stage 4 or stage 6
  endocrine induction and β-cell specification: increased both general endocrine induction (CHGA+) and β-cell specification (NKX6-1+/c-peptide+)
[2]; 1 μM during the first 24 hours of stage 5
  GSIS, optimization of duration and concentration during stage 5: most benefit at the shortest and lowest dose
[2]; [4]
  expression of endocrine genes: increased expression of endocrine genes
  expression of markers associated with other endodermal lineages: reduced
  pro-insulin/insulin ratio: improved pro-insulin/insulin ratio
  total insulin content: increased total insulin content
[3]; 1 μM for the first 24 hours of stage 5
  endocrine induction, SC-β cell specification and off-target lineages: greatly increased endocrine induction and SC-β cell specification while decreasing off-target lineages
[3]; added during stage 4 (0.5 μM)
  NKX6-1 expression: decreasing NKX6-1 expression
  premature expression of NEUROG3 and its downstream targets: dramatically increased premature expression of NEUROG3
